Reference: ChEMBL document CHEMBL2384960, “Anti-inflammatory secondary metabolites from the leaves of Rosa laevigata” (Bioorg Med Chem, 2013)
Activity calls are given as the source filed them. The calls are words filed in the database; no cut-off is given here.

How the values were obtained:
RAW264.7 [1] = assay: Antiinflammatory activity in mouse RAW264.7 cells assessed as inhibition of LPS-induced IL-1beta release at 0.5 to 100 ug/ml incubated for 4 hrs prior to LPS challenge measured after 24 hrs by ELISA; format: functional, cell-based
RAW264.7 [2] = assay: Cytotoxicity against mouse RAW264.7 cells up to 50 ug/ml after 24 hrs by MTT assay in presence of LPS; format: cell-based; details: raw264.7, 24 h
RAW264.7 [3] = assay: Antiinflammatory activity in mouse RAW264.7 cells assessed as inhibition of LPS-induced IL-6 release incubated for 4 hrs prior to LPS challenge measured after 24 hrs by ELISA; format: functional, cell-based
RAW264.7 [4] = assay: Antiinflammatory activity in mouse RAW264.7 cells assessed as inhibition of LPS-induced IL-6 release at 0.5 to 100 ug/ml incubated for 4 hrs prior to LPS challenge measured after 24 hrs by ELISA; format: functional, cell-based
RAW264.7 [5] = assay: Antiinflammatory activity in mouse RAW264.7 cells assessed as inhibition of LPS-induced IL-10 release incubated for 4 hrs prior to LPS challenge measured after 24 hrs by ELISA; format: functional, cell-based
RAW264.7 [6] = assay: Antiinflammatory activity in mouse RAW264.7 cells assessed as inhibition of LPS-induced IL-10 release at 0.5 to 100 ug/ml incubated for 4 hrs prior to LPS challenge measured after 24 hrs by ELISA; format: functional, cell-based
RAW264.7 [7] = assay: Antiinflammatory activity in mouse RAW264.7 cells assessed as inhibition of LPS-induced TNF-alpha release incubated for 4 hrs prior to LPS challenge measured after 24 hrs by ELISA; format: functional, cell-based
RAW264.7 [8] = assay: Antiinflammatory activity in mouse RAW264.7 cells assessed as inhibition of LPS-induced IL-1beta release incubated for 4 hrs prior to LPS challenge measured after 24 hrs by ELISA; format: functional, cell-based
RAW264.7 [9] = assay: Antiinflammatory activity in mouse RAW264.7 cells assessed as inhibition of LPS-induced TNF-alpha release at 0.5 to 100 ug/ml incubated for 4 hrs prior to LPS challenge measured after 24 hrs by ELISA; format: functional, cell-based
[10] = (§1) Inhibition of LPS-induced NF-kappaB activation in HEK293 cells incubated for 4 hrs prior to LPS challenge measured after 48 hrs by luciferase reporter gene assay; format: cell-based; details: Homo sapiens
HEK293 = assay: as §1; format: cell-based; details: Homo sapiens

Compound	inhibition (RAW264.7 [1])	Activity (RAW264.7 [2])	IC50 (RAW264.7 [3]) [µM]	inhibition (RAW264.7 [4])	IC50 (RAW264.7 [5]) [µM]	inhibition (RAW264.7 [6])	IC50 (RAW264.7 [7]) [µM]	IC50 (RAW264.7 [8]) [µM]	inhibition (RAW264.7 [9])	IC50 [10] [µM]	inhibition (HEK293)
C[C@@H]1CC[C@]2(C(=O)O)CC[C@]3(C)C(=CC[C@@H]4[C@@]5(C)C[C@@H](O)[C@@H](O)[C@@](C)(CO)[C@@H]5CC[C@]43C)[C@@H]2[C@]1(C)O	Active	Non-toxic	8.04	Active	10.4	Active	14.3	8.53	Active	23.2	Dose-dependent effect
C[C@@H]1CC[C@]2(C(=O)O)CC[C@]3(C)C(=CC[C@@H]4[C@@]5(C)C[C@@H](O)[C@H](O)[C@@](C)(CO)[C@@H]5CC[C@]43C)[C@@H]2[C@]1(C)O	Active	Non-toxic		Active		Active			Active	79	Dose-dependent effect
C[C@]1(CO)CC[C@]2(C(=O)O[C@@H]3O[C@H](CO)[C@@H](O)[C@H](O)[C@H]3O)CC[C@]3(C)C(=C2C1)CC[C@@H]1[C@@]2(C)C[C@@H](O)[C@H](O)[C@@](C)(CO)[C@@H]2CC[C@]13C	Active	Non-toxic		Active		Active			Active	65.6	Dose-dependent effect
C[C@@H]1CC[C@]2(C(=O)O)CC[C@]3(C)C(=CC[C@@H]4[C@@]5(C)C[C@@H](O)[C@@H](O)C(C)(C)[C@@H]5CC[C@]43C)[C@@H]2[C@]1(C)O [EUSCAPHIC ACID]		Non-toxic								175	Dose-dependent effect
